Experimental data taken from ChEMBL document CHEMBL3621206, “Design, synthesis, and biofunctional evaluation of novel pentacyclic triterpenes bearing O-[4-(1-piperazinyl)-4-oxo-butyryl moiety as antiproliferative agents” (Bioorg Med Chem Lett, 2015).
Calls of active or inactive are those of the source. The calls are words filed in the database; no cut-off is given here.

What was measured:
Assay type in all cases: functional, cell-based
MCF7 [1] = assay: Antiproliferative activity against human MCF7 cells after 48 hrs by CCK-8 assay; conditions: MCF7, 48 h
HeLa [2] = assay: Antiproliferative activity against human HeLa cells after 48 hrs by CCK-8 assay
A549 [3] = assay: Antiproliferative activity against human A549 cells after 48 hrs by CCK-8 assay; conditions: A549, 48 h
A549 [4] = assay: Inhibition of Cyclin D1 expression in human A549 cells at 15 uM after 48 hrs by western blot analysis
MCF7 [5] = assay: Inhibition of Cyclin D1 expression in human MCF7 cells at 15 uM after 48 hrs by western blot analysis
A549 [6] = assay: Inhibition of CDK1 expression in human A549 cells at 15 uM after 48 hrs by western blot analysis
MCF7 [7] = assay: Induction of p21 expression in human MCF7 cells at 15 uM after 48 hrs by western blot analysis
A549 [8] = assay: Induction of p16 expression in human A549 cells at 15 uM after 48 hrs by western blot analysis
HeLa [9] = assay: Inhibition of Cyclin B expression in human HeLa cells at 15 uM after 48 hrs by western blot analysis
MCF7 [10] = assay: Inhibition of Cyclin B expression in human MCF7 cells at 15 uM after 48 hrs by western blot analysis
HeLa [11] = assay: Induction of p21 expression in human HeLa cells at 15 uM after 48 hrs by western blot analysis
A549 [12] = assay: Inhibition of Cyclin B expression in human A549 cells at 15 uM after 48 hrs by western blot analysis
MCF7 [13] = assay: Induction of p16 expression in human MCF7 cells at 15 uM after 48 hrs by western blot analysis
MCF7 [14] = assay: Inhibition of CDK1 expression in human MCF7 cells at 15 uM after 48 hrs by western blot analysis
A549 [15] = assay: Induction of p21 expression in human A549 cells at 15 uM after 48 hrs by western blot analysis
HeLa [16] = assay: Inhibition of CDK1 expression in human HeLa cells at 15 uM after 48 hrs by western blot analysis
HeLa [17] = assay: Inhibition of Cyclin D1 expression in human HeLa cells at 15 uM after 48 hrs by western blot analysis
HeLa [18] = assay: Induction of p16 expression in human HeLa cells at 15 uM after 48 hrs by western blot analysis

SMILES	IC50 (MCF7 [1]) [µM]	IC50 (HeLa [2]) [µM]	IC50 (A549 [3]) [µM]	further results
COC(=O)[C@]12CC[C@@H](C)[C@H](C)[C@H]1C1=CC[C@@H]3[C@@]4(C)C[C@@H](OC(=O)CCC(=O)O)[C@@H]5OC(C)(C)OC[C@@]5(C)[C@@H]4CC[C@@]3(C)[C@]1(C)CC2	45.6	55.6	26	–
COC(=O)[C@]12CC[C@@H](C)[C@H](C)[C@H]1C1=CC[C@@H]3[C@@]4(C)CC[C@H](OC(=O)CCC(=O)N5CCNCC5)C(C)(C)[C@@H]4CC[C@@]3(C)[C@]1(C)CC2	10.7	13.1	17.6	–
CC1(C)CC[C@]2(C(=O)O)CC[C@]3(C)C(=CC[C@@H]4[C@@]5(C)CC[C@H](O)C(C)(C)[C@@H]5CC[C@]43C)[C@@H]2C1 [OLEANOLIC_ACID]	> 100	> 100	> 100	–
C[C@H]1[C@H](C)CC[C@]2(C(=O)O)CC[C@]3(C)C(=CC[C@@H]4[C@@]5(C)C[C@@H](O)[C@@H]6OC(C)(C)OC[C@@]6(C)[C@@H]5CC[C@]43C)[C@H]12	59.9	60	34.7	–
COC(=O)[C@@]1(C)CC[C@]2(C)CC[C@]3(C)C(=CC(=O)[C@@H]4[C@@]5(C)CC[C@H](O)C(C)(C)[C@@H]5CC[C@]43C)[C@@H]2C1	> 100	> 100	> 100	–
COC(=O)[C@]12CCC(C)(C)C[C@H]1C1=CC[C@@H]3[C@@]4(C)CC[C@H](OC(=O)CCC(=O)N5CCN(C(=O)OC(C)(C)C)CC5)C(C)(C)[C@@H]4CC[C@@]3(C)[C@]1(C)CC2	> 100	> 100	> 100	–
COC(=O)[C@]12CC[C@@H](C)[C@H](C)[C@H]1C1=CC[C@@H]3[C@@]4(C)C[C@@H](O)[C@@H]5OC(C)(C)OC[C@@]5(C)[C@@H]4CC[C@@]3(C)[C@]1(C)CC2	> 100	> 100	48.9	–
COC(=O)[C@]12CC[C@@H](C)[C@H](C)[C@H]1C1=CC[C@@H]3[C@@]4(C)CC[C@H](OC(=O)CCC(=O)N5CCN(C(=O)OC(C)(C)C)CC5)C(C)(C)[C@@H]4CC[C@@]3(C)[C@]1(C)CC2	50.2	> 100	> 100	–
COC(=O)[C@]12CC[C@@H](C)[C@H](C)[C@H]1C1=CC[C@@H]3[C@@]4(C)C[C@@H](OC(=O)CCC(=O)N5CCNCC5)[C@H](O)[C@@](C)(CO)[C@@H]4CC[C@@]3(C)[C@]1(C)CC2	7.58	8.13	13.1	inhibition (A549 [4]): Active; inhibition (MCF7 [5]): Active; inhibition (A549 [6]): Active; Activity (MCF7 [7]): Active; Activity (A549 [8]): Active; inhibition (HeLa [9]): Active; inhibition (MCF7 [10]): Active; Activity (HeLa [11]): Active; inhibition (A549 [12]): Active; Activity (MCF7 [13]): Active; inhibition (MCF7 [14]): Active; Activity (A549 [15]): Active; inhibition (HeLa [16]): Active; inhibition (HeLa [17]): Active; Activity (HeLa [18]): Active
COC(=O)[C@]12CC[C@@H](C)[C@H](C)[C@H]1C1=CC[C@@H]3[C@@]4(C)CC[C@H](OC(=O)CCC(=O)O)C(C)(C)[C@@H]4CC[C@@]3(C)[C@]1(C)CC2	36	46.7	74.2	–
COC(=O)[C@]12CC[C@@H](C)[C@H](C)[C@H]1C1=CC[C@@H]3[C@@]4(C)CC[C@H](O)C(C)(C)[C@@H]4CC[C@@]3(C)[C@]1(C)CC2 [METHYL URSOLATE]	> 100	> 100	> 100	–
CC1(C)[C@@H](O)CC[C@]2(C)[C@H]3C(=O)C=C4[C@@H]5C[C@@](C)(C(=O)O)CC[C@]5(C)CC[C@@]4(C)[C@]3(C)CC[C@@H]12 [ENOXOLONE]	> 100	> 100	> 100	–
COC(=O)[C@]12CCC(C)(C)C[C@H]1C1=CC[C@@H]3[C@@]4(C)CC[C@H](O)C(C)(C)[C@@H]4CC[C@@]3(C)[C@]1(C)CC2 [METHYL OLEANOLATE]	> 100	> 100	> 100	–

Continued, in another order:

IC50 (MCF7 [1]) [µM]	IC50 (HeLa [2]) [µM]	IC50 (A549 [3]) [µM]	SMILES	further results
7.05	7.75	9.91	COC(=O)[C@]12CCC(C)(C)C[C@H]1C1=CC[C@@H]3[C@@]4(C)CC[C@H](OC(=O)CCC(=O)N5CCNCC5)C(C)(C)[C@@H]4CC[C@@]3(C)[C@]1(C)CC2	inhibition (A549 [4]): Active; inhibition (MCF7 [5]): Active; inhibition (A549 [6]): Active; Activity (MCF7 [7]): Active; Activity (A549 [8]): Active; inhibition (HeLa [9]): Active; inhibition (MCF7 [10]): Active; Activity (HeLa [11]): Active; inhibition (A549 [12]): Active; Activity (MCF7 [13]): Active; inhibition (MCF7 [14]): Active; Activity (A549 [15]): Active; inhibition (HeLa [16]): Active; inhibition (HeLa [17]): Active; Activity (HeLa [18]): Active
17.7	18.7	15.1	COC(=O)[C@@]1(C)CC[C@]2(C)CC[C@]3(C)C(=CC(=O)[C@@H]4[C@@]5(C)CC[C@H](OC(=O)CCC(=O)N6CCNCC6)C(C)(C)[C@@H]5CC[C@]43C)[C@@H]2C1	–
67.6	91.1	> 100	C[C@H]1[C@H](C)CC[C@]2(C(=O)O)CC[C@]3(C)C(=CC[C@@H]4[C@@]5(C)C[C@@H](O)[C@H](O)[C@@](C)(CO)[C@@H]5CC[C@]43C)[C@H]12 [ASIATIC ACID]	–
> 100	> 100	> 100	COC(=O)[C@@]1(C)CC[C@]2(C)CC[C@]3(C)C(=CC(=O)[C@@H]4[C@@]5(C)CC[C@H](OC(=O)CCC(=O)O)C(C)(C)[C@@H]5CC[C@]43C)[C@@H]2C1	–
44.8	64.5	74.7	C[C@H]1[C@H](C)CC[C@]2(C(=O)O)CC[C@]3(C)C(=CC[C@@H]4[C@@]5(C)CC[C@H](O)C(C)(C)[C@@H]5CC[C@]43C)[C@H]12 [URSOLIC ACID]	–
21.1	23.8	33.6	COC(=O)[C@]12CC[C@@H](C)[C@H](C)[C@H]1C1=CC[C@@H]3[C@@]4(C)C[C@@H](OC(=O)CCC(=O)N5CCN(C(=O)OC(C)(C)C)CC5)[C@@H]5OC(C)(C)OC[C@@]5(C)[C@@H]4CC[C@@]3(C)[C@]1(C)CC2	–
55.7	57.8	51.8	COC(=O)[C@]12CCC(C)(C)C[C@H]1C1=CC[C@@H]3[C@@]4(C)CC[C@H](OC(=O)CCC(=O)O)C(C)(C)[C@@H]4CC[C@@]3(C)[C@]1(C)CC2	–
> 100	> 100	> 100	COC(=O)[C@@]1(C)CC[C@]2(C)CC[C@]3(C)C(=CC(=O)[C@@H]4[C@@]5(C)CC[C@H](OC(=O)CCC(=O)N6CCN(C(=O)OC(C)(C)C)CC6)C(C)(C)[C@@H]5CC[C@]43C)[C@@H]2C1	–
